Calls of active or inactive are those of the source. The rule behind the calls is not given here.
Assays:
[1] = test system: Hordeum vulgare; test: Stimulation of root length of Hordeum vulgare (barley) at 0.1 mM after 5 days relative to untreated control; assay type: functional
[2] = test system: Triticum aestivum; test: Stimulation of shoot length of Triticum aestivum (wheat) at 0.1 mM after 5 days relative to untreated control; assay type: functional
[3] = test system: Hordeum vulgare; test: Stimulation of germination of Hordeum vulgare (barley) at 0.1 mM after 5 days relative to untreated control; assay type: functional
[4] = test system: Triticum aestivum; test: Stimulation of root length of Triticum aestivum (wheat) at 0.1 mM after 5 days relative to untreated control; assay type: functional
[5] = test system: Triticum aestivum; test: Stimulation of germination of Triticum aestivum (wheat) at 0.1 mM after 5 days relative to untreated control; assay type: functional
[6] = test system: Allium cepa; test: Stimulation of root length of Allium cepa (onion) at 0.1 mM after 5 days relative to untreated control; assay type: functional
[7] = test system: Allium cepa; test: Stimulation of shoot length of Allium cepa (onion) at 0.1 mM after 5 days relative to untreated control; assay type: functional
[8] = test system: Allium cepa; test: Stimulation of germination of Allium cepa (onion) at 0.1 mM after 5 days relative to untreated control; assay type: functional
[9] = test system: Solanum lycopersicum; test: Stimulation of shoot length of Solanum lycopersicum (tomato) at 0.1 mM after 5 days relative to untreated control; assay type: functional
[10] = test system: Solanum lycopersicum; test: Stimulation of root length of Solanum lycopersicum (tomato) at 0.1 mM after 5 days relative to untreated control; assay type: functional
[11] = test system: Solanum lycopersicum; test: Stimulation of germination of Solanum lycopersicum (tomato) at 0.1 mM after 5 days relative to untreated control; assay type: functional
[12] = test system: Lepidium sativum; test: Stimulation of shoot length of Lepidium sativum at 0.1 mM after 5 days relative to untreated control; assay type: functional
[13] = test system: Lepidium sativum; test: Stimulation of root length of Lepidium sativum at 0.1 mM after 5 days relative to untreated control; assay type: functional
[14] = test system: Lactuca sativa; test: Stimulation of shoot length of Lactuca sativa cv. Roman (lettuce) at 0.1 mM after 5 days relative to untreated control; assay type: functional
[15] = test system: Lepidium sativum; test: Stimulation of germination of Lepidium sativum at 0.1 mM after 5 days relative to untreated control; assay type: functional
[16] = test system: Lactuca sativa; test: Stimulation of root length of Lactuca sativa cv. Roman (lettuce) at 0.1 mM after 5 days relative to untreated control; assay type: functional
[17] = test system: Lactuca sativa; test: Stimulation of germination of Lactuca sativa cv. Roman (lettuce) at 0.1 mM after 5 days relative to untreated control; assay type: functional
[18] = test system: Lactuca sativa; test: Stimulation of shoot length of Lactuca sativa cv. Nigra (lettuce) at 0.1 mM after 5 days relative to untreated control; assay type: functional
[19] = test system: Lactuca sativa; test: Stimulation of root length of Lactuca sativa cv. Nigra (lettuce) at 0.1 mM after 5 days relative to untreated control; assay type: functional
[20] = test system: Lactuca sativa; test: Stimulation of germination of Lactuca sativa cv. Nigra (lettuce) at 0.1 mM after 5 days relative to untreated control; assay type: functional
[21] = test system: Triticum aestivum; test: Inhibition of shoot length of Triticum aestivum (wheat) at 0.1 mM after 5 days relative to untreated control; assay type: functional; settings: 120 h
[22] = test system: Hordeum vulgare; test: Inhibition of germination of Hordeum vulgare (barley) at 0.1 mM after 5 days relative to untreated control; assay type: functional; settings: 120 h
[23] = test system: Hordeum vulgare; test: Inhibition of root length of Hordeum vulgare (barley) at 0.1 mM after 5 days relative to untreated control; assay type: functional; settings: 120 h
[24] = test system: Hordeum vulgare; test: Stimulation of shoot length of Hordeum vulgare (barley) at 0.1 mM after 5 days relative to untreated control; assay type: functional
[25] = test system: Lactuca sativa; test: Inhibition of germination of Lactuca sativa cv. Nigra (lettuce) at 0.1 mM after 5 days relative to untreated control; assay type: functional; settings: 120 h
[26] = test system: Lactuca sativa; test: Inhibition of root length of Lactuca sativa cv. Nigra (lettuce) at 0.1 mM after 5 days relative to untreated control; assay type: functional; settings: 120 h
[27] = test system: Lactuca sativa; test: Inhibition of shoot length of Lactuca sativa cv. Nigra (lettuce) at 0.1 mM after 5 days relative to untreated control; assay type: functional; settings: 120 h
[28] = test system: Hordeum vulgare; test: Inhibition of shoot length of Hordeum vulgare (barley) at 10 uM after 5 days relative to untreated control; assay type: functional, organism-based
[29] = test system: Triticum aestivum; test: Inhibition of shoot length of Triticum aestivum (wheat) at 10 uM after 5 days relative to untreated control; assay type: functional, organism-based
[30] = test system: Hordeum vulgare; test: Inhibition of root length of Hordeum vulgare (barley) at 10 uM after 5 days relative to untreated control; assay type: functional, organism-based
[31] = test system: Allium cepa; test: Inhibition of shoot length of Allium cepa (onion) at 10 uM after 5 days relative to untreated control; assay type: functional; settings: 120 h
[32] = test system: Triticum aestivum; test: Inhibition of root length of Triticum aestivum (wheat) at 10 uM after 5 days relative to untreated control; assay type: functional; settings: 120 h
[33] = test system: Allium cepa; test: Inhibition of root length of Allium cepa (onion) at 10 uM after 5 days relative to untreated control; assay type: functional; settings: 120 h
[34] = test system: Solanum lycopersicum; test: Inhibition of shoot length of Solanum lycopersicum (tomato) at 1 uM after 5 days relative to untreated control; assay type: functional; settings: 120 h
[35] = test system: Lepidium sativum; test: Stimulation of shoot length of Lepidium sativum at 1 uM after 5 days relative to untreated control; assay type: functional
[36] = test system: Solanum lycopersicum; test: Inhibition of root length of Solanum lycopersicum (tomato) at 1 uM after 5 days relative to untreated control; assay type: functional; settings: 120 h
[37] = test system: Lepidium sativum; test: Stimulation of root length of Lepidium sativum at 1 uM after 5 days relative to untreated control; assay type: functional
[38] = test system: Solanum lycopersicum; test: Inhibition of shoot length of Solanum lycopersicum (tomato) at 10 uM after 5 days relative to untreated control; assay type: functional, organism-based
[39] = test system: Lactuca sativa; test: Inhibition of germination of Lactuca sativa cv. Roman (lettuce) at 0.1 mM after 5 days relative to untreated control; assay type: functional; settings: 120 h
[40] = test system: Lactuca sativa; test: Inhibition of root length of Lactuca sativa cv. Roman (lettuce) at 0.1 mM after 5 days relative to untreated control; assay type: functional; settings: 120 h
[41] = test system: Lactuca sativa; test: Inhibition of shoot length of Lactuca sativa cv. Roman (lettuce) at 0.1 mM after 5 days relative to untreated control; assay type: functional; settings: 120 h
[42] = test system: Lepidium sativum; test: Inhibition of germination of Lepidium sativum at 0.1 mM after 5 days relative to untreated control; assay type: functional; settings: 120 h
[43] = test system: Lepidium sativum; test: Inhibition of root length of Lepidium sativum at 0.1 mM after 5 days relative to untreated control; assay type: functional; settings: 120 h
[44] = test system: Lepidium sativum; test: Inhibition of shoot length of Lepidium sativum at 0.1 mM after 5 days relative to untreated control; assay type: functional; settings: 120 h
[45] = test system: Solanum lycopersicum; test: Inhibition of germination of Solanum lycopersicum (tomato) at 0.1 mM after 5 days relative to untreated control; assay type: functional; settings: 120 h
[46] = test system: Solanum lycopersicum; test: Inhibition of root length of Solanum lycopersicum (tomato) at 0.1 mM after 5 days relative to untreated control; assay type: functional; settings: 120 h
[47] = test system: Solanum lycopersicum; test: Inhibition of shoot length of Solanum lycopersicum (tomato) at 0.1 mM after 5 days relative to untreated control; assay type: functional; settings: 120 h
[48] = test system: Allium cepa; test: Inhibition of germination of Allium cepa (onion) at 0.1 mM after 5 days relative to untreated control; assay type: functional; settings: 120 h
[49] = test system: Allium cepa; test: Inhibition of root length of Allium cepa (onion) at 0.1 mM after 5 days relative to untreated control; assay type: functional; settings: 120 h
[50] = test system: Allium cepa; test: Inhibition of shoot length of Allium cepa (onion) at 0.1 mM after 5 days relative to untreated control; assay type: functional; settings: 120 h
[51] = test system: Triticum aestivum; test: Inhibition of germination of Triticum aestivum (wheat) at 0.1 mM after 5 days relative to untreated control; assay type: functional; settings: 120 h
[52] = test system: Triticum aestivum; test: Inhibition of root length of Triticum aestivum (wheat) at 0.1 mM after 5 days relative to untreated control; assay type: functional; settings: 120 h
[53] = test system: Solanum lycopersicum; test: Inhibition of root length of Solanum lycopersicum (tomato) at 10 uM after 5 days relative to untreated control; assay type: functional, organism-based
[54] = test system: Solanum lycopersicum; test: Inhibition of germination of Solanum lycopersicum (tomato) at 10 uM after 5 days relative to untreated control; assay type: functional, organism-based
[55] = test system: Lepidium sativum; test: Inhibition of shoot length of Lepidium sativum at 10 uM after 5 days relative to untreated control; assay type: functional, organism-based
[56] = test system: Lepidium sativum; test: Inhibition of root length of Lepidium sativum at 10 uM after 5 days relative to untreated control; assay type: functional, organism-based
[57] = test system: Lepidium sativum; test: Inhibition of germination of Lepidium sativum at 10 uM after 5 days relative to untreated control; assay type: functional, organism-based
[58] = test system: Hordeum vulgare; test: Inhibition of shoot length of Hordeum vulgare (barley) at 0.1 mM after 5 days relative to untreated control; assay type: functional; settings: 120 h

CO[C@@H]1OC(=O)C=C2C1=C[C@H]1OC(=O)[C@@]3(C)CCC[C@@]2(C)[C@@H]13
Activity [1]: >40% | Activity [2]: >40% | Activity [3]: >40% | Activity [4]: >40% | Activity [5]: >40% | Activity [6]: >40% | Activity [7]: >40% | Activity [8]: >40% | Activity [9]: >40% | Activity [10]: >40% | Activity [11]: >40% | Activity [12]: >40% | Activity [13]: >40% | Activity [14]: >40% | Activity [15]: >40% | Activity [16]: >40% | Activity [17]: >40% | Activity [18]: >40% | Activity [19]: >40% | Activity [20]: 20% | inhibition at 100 µM [21]: > 40% | inhibition at 100 µM [22]: > 40% | inhibition at 100 µM [23]: > 40% | Activity [24]: >40% | inhibition at 100 µM [25]: 20% | inhibition at 100 µM [26]: > 40% | inhibition at 100 µM [27]: > 40% | inhibition [28]: inactive | inhibition [29]: inactive | inhibition [30]: inactive | inhibition at 10 µM [31]: -74% | inhibition at 10 µM [32]: -42% | inhibition at 10 µM [33]: -54% | inhibition at 1 µM [34]: -44% | Activity [35]: -73% | inhibition at 1 µM [36]: -45% | Activity [37]: -44% | inhibition [38]: Active | inhibition at 100 µM [39]: > 40% | inhibition at 100 µM [40]: > 40% | inhibition at 100 µM [41]: > 40% | inhibition at 100 µM [42]: > 40% | inhibition at 100 µM [43]: > 40% | inhibition at 100 µM [44]: > 40% | inhibition at 100 µM [45]: > 40% | inhibition at 100 µM [46]: > 40% | inhibition at 100 µM [47]: > 40% | inhibition at 100 µM [48]: > 40% | inhibition at 100 µM [49]: > 40% | inhibition at 100 µM [50]: > 40% | inhibition at 100 µM [51]: > 40% | inhibition at 100 µM [52]: > 40% | inhibition [53]: Active | inhibition [54]: Active | inhibition [55]: Active | inhibition [56]: Active | inhibition [57]: Active | inhibition at 100 µM [58]: > 40%

— ChEMBL document CHEMBL3046208, “Natural and synthetic podolactones with potential use as natural herbicide models” (2000)
